Experimental data reported in US12404279B2, “Deubiquitinase inhibitors and methods of use thereof” (Molecure S.A., priority 2021, dated 2025).
Where a name gives a salt, the structure may show the parent alone.

biological target: full-length USP7 (Homo sapiens (Human), UniProt Q93009); test: Enzymatic assay to determine IC50 of USP7 inhibitors (Ubiquitin-Rhodamine 110 cleavage); type: biochemical; settings: 0.5 nM USP7, 0.5 μM Ubiquitin-Rhodamine 110, 45 min at 37° C.
Experimental: For the inhibitors disclosed herein, their potency was measured using the following method.
A 45 μl reaction volume containing full-length USP7 (0.5 nM) in 50 mM HEPES pH 7.5, 150 mM NaCl, 1 mM DTT, 1 mg/ml BSA and 0.05% Tween20 was assembled in wells of 96 well half area black flat bottom plates. Test compounds were first dissolved to 25 mM stocks in DMSO and subsequently introduced to enzyme 15 min after USP7 incubation with DTT at room temperature. The enzymatic reaction was started by adding 0.5 μM Ubiquitin-Rhodamine 110 (final concentration) and allowed to proceed for 45 min at 37° C., 250 RPM shaking before Rhodamine fluorescence (485 nm excitation/520 nm emission) was measured using Tecan Spark M10 plate reader.

Chain of full-length USP7 (Q93009 whole entry): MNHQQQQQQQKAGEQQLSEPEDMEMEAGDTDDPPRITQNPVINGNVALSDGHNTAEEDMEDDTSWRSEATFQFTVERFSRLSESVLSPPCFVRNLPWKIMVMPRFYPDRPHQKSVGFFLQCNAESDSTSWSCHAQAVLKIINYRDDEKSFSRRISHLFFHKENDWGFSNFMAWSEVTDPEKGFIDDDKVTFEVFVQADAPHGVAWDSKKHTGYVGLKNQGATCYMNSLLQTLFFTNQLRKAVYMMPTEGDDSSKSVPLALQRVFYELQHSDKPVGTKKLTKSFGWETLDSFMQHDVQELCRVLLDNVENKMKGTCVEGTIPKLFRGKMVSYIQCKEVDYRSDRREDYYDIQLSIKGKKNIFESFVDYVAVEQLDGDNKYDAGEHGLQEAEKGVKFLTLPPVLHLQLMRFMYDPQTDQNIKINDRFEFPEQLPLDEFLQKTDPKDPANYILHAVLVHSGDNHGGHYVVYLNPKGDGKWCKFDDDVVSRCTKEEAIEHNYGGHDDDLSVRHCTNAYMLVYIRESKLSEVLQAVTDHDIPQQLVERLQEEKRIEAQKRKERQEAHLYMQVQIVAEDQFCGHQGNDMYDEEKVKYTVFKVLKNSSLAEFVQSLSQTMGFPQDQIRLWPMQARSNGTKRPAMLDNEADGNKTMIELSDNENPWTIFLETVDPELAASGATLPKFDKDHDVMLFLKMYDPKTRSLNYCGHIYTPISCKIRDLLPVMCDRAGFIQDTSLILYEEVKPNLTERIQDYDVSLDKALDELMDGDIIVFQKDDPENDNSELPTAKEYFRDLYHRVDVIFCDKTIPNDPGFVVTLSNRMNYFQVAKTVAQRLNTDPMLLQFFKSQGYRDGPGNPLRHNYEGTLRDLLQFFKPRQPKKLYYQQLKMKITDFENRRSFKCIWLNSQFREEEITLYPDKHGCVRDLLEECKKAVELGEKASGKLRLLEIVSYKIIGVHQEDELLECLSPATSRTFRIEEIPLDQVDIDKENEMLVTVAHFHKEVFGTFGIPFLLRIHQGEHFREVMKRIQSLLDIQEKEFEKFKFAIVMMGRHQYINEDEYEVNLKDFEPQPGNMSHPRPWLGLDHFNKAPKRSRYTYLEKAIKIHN

Structure (SMILES) | IC50
Cc1nc(C#N)cc(-c2ccnc3cc(CN4C(=O)C5C(C4=O)C5(C)C)sc23)c1C(=O)N1CC[C@@H](O)C1 (stereo partly drawn) [Example 12, 4-(2-((6,6-dimethyl-2,4-dioxo-3-azabicyclo[3.1.0]hexan-3-yl)methyl)thieno[3,2-b]pyridin-7-yl)-5-((R)-3-hydroxypyrrolidine-1-carbonyl)-6-methylpicolinonitrile 2,2,2-trifluoroacetate] | 500 to 1000 nM
Cc1cc(C(F)(F)F)nc(-c2ccnc3cc(CN4C(=O)C5C(C4=O)C5(C)C)sc23)c1C(=O)N1CCN(C)CC1 (centres unmarked) [Example 80, 6,6-dimethyl-3-((7-(4-methyl-3-(4-methylpiperazine-1-carbonyl)-6-(trifluoromethyl)pyridin-2-yl)thieno[3,2-b]pyridin-2-yl)methyl)-3-azabicyclo[3.1.0]hexane-2,4-dione dihydrochloride] | < 500 nM
Cc1nc(C#N)cc(-c2ccnc3cc(CN4C(=O)C5C(C4=O)C5(C)C)sc23)c1C(=O)N1CC[C@H](O)C1 (stereo partly drawn) [Example 11, 4-(2-((6,6-dimethyl-2,4-dioxo-3-azabicyclo[3.1.0]hexan-3-yl)methyl)thieno[3,2-b]pyridin-7-yl)-5-((S)-3-hydroxypyrrolidine-1-carbonyl)-6-methylpicolinonitrile 2,2,2-trifluoroacetate] | < 500 nM
Cc1cc(C(F)(F)F)nc(-c2ccnc3cc(CN4C(=O)C5C(C4=O)C5(C)C)sc23)c1C(=O)N1CC[C@H](C(F)F)C1 (stereo partly drawn) [Example 104, 3-((7-(3-((S)-3-(difluoromethyl)pyrrolidine-1-carbonyl)-4-methyl-6-(trifluoromethyl)pyridin-2-yl)thieno[3,2-b]pyridin-2-yl)methyl)-6,6-dimethyl-3-azabicyclo[3.1.0]hexane-2,4-dione hydrochloride] | < 500 nM
Cc1cc(C(F)(F)F)nc(-c2ccnc3cc(CN4C(=O)C5C(C4=O)C5(C)C)sc23)c1C(=O)N1CC[C@H](CN)C1 (stereo partly drawn) [Example 115, 3-((7-(3-((R)-3-(aminomethyl)pyrrolidine-1-carbonyl)-4-methyl-6-(trifluoromethyl)pyridin-2-yl)thieno[3,2-b]pyridin-2-yl)methyl)-6,6-dimethyl-3-azabicyclo[3.1.0]hexane-2,4-dione dihydrochloride] | 500 to 1000 nM

More lines, now with the values ahead:

IC50 | Structure (SMILES)
500 to 1000 nM | Cc1nc(C(F)(F)F)cc(-c2ccnc3cc(CN4C(=O)C5C(C4=O)C5(C)C)sc23)c1O[C@H]1CCNC1 (some centres unmarked) [Example 22]
500 to 1000 nM | Cc1cc(C#N)nc(-c2ccnc3cc(CN4C(=O)C5C(C4=O)C5(C)C)sc23)c1C(=O)N1CCNC[C@H]1C (stereo partly drawn) [Example 54, 6-(2-((6,6-dimethyl-2,4-dioxo-3-azabicyclo[3.1.0]hexan-3-yl)methyl)thieno[3,2-b]pyridin-7-yl)-4-methyl-5-((R)-2-methylpiperazine-1-carbonyl)picolinonitrile hydrochloride]
< 500 nM | Cc1cc(Cl)nc(-c2ccnc3cc(CN4C(=O)C5C(C4=O)C5(C)C)sc23)c1NC1CNC1 (centres unmarked) [Example 122, 3-((7-(3-(azetidin-3-ylamino)-6-chloro-4-methylpyridin-2-yl)thieno[3,2-b]pyridin-2-yl)methyl)-6,6-dimethyl-3-azabicyclo[3.1.0]hexane-2,4-dione tetrahydrochloride]
< 500 nM | Cc1nc(Cl)cc(-c2ccnc3cc(CN4C(=O)C5C(C4=O)C5(C)C)sc23)c1NC1CCNC1 (racemic) [Example 125, 3-((7-(6-chloro-2-methyl-3-(pyrrolidin-3-ylamino)pyridin-4-yl)thieno[3,2-b]pyridin-2-yl)methyl)-6,6-dimethyl-3-azabicyclo[3.1.0]hexane-2,4-dione 2,2,2-trifluoroacetate]
1000 to 10000 nM | Cc1cc(C(F)(F)F)nc(-c2ccnc3cc(CN4C(=O)C5C(C4=O)C5(C)C)sc23)c1C(=O)N[C@H]1CCNC1 (stereo partly drawn) [Example 75, 2-(2-((6,6-dimethyl-2,4-dioxo-3-azabicyclo[3.1.0]hexan-3-yl)methyl)thieno[3,2-b]pyridin-7-yl)-4-methyl-N—((S)-pyrrolidin-3-yl)-6-(trifluoromethyl)nicotinamide dihydrochloride]
< 500 nM | Cc1cc(Cl)nc(-c2ccnc3cc(CN4C(=O)C5C(C4=O)C5(C)C)sc23)c1NC1CCCNC1 (racemic) [Example 129, 3-((7-(6-chloro-4-methyl-3-(piperidin-3-ylamino)pyridin-2-yl)thieno[3,2-b]pyridin-2-yl)methyl)-6,6-dimethyl-3-azabicyclo[3.1.0]hexane-2,4-dione tetrahydrochloride]
< 500 nM | Cc1nc(C(F)(F)F)cc(-c2ccnc3cc(CN4C(=O)C5C(C4=O)C5(C)C)sc23)c1OC1CCNC1 (racemic) [Example 21, 6,6-dimethyl-3-((7-(2-methyl-3-(pyrrolidin-3-yloxy)-6-(trifluoromethyl)pyridin-4-yl)thieno[3,2-b]pyridin-2-yl)methyl)-3-azabicyclo[3.1.0]hexane-2,4-dione 2,2,2-trifluoroacetate]
1000 to 10000 nM | Cc1cc(C(F)(F)F)nc(-c2ccnc3cc(CN4C(=O)C5C(C4=O)C5(C)C)sc23)c1C(=O)N1[C@H](C)CNC[C@H]1C (stereo partly drawn) [Example 142, 3-((7-(3-((2R,6R)-2,6-dimethylpiperazine-1-carbonyl)-4-methyl-6-(trifluoromethyl)pyridin-2-yl)thieno[3,2-b]pyridin-2-yl)methyl)-6,6-dimethyl-3-azabicyclo[3.1.0]hexane-2,4-dione 2,2,2-trifluoroacetate]
< 500 nM | Cc1cc(C#N)nc(-c2ccnc3cc(CN4C(=O)C5C(C4=O)C5(C)C)sc23)c1NC1CNC1 (centres unmarked) [Example 24, 5-(azetidin-3-ylamino)-6-(2-((6,6-dimethyl-2,4-dioxo-3-azabicyclo[3.1.0]hexan-3-yl)methyl)thieno[3,2-b]pyridin-7-yl)-4-methylpicolinonitrile 2,2,2-trifluoroacetate]

same assay, conditions: at 1 μM of the test compound; given where IC50 not determined yet; read-out: percent value of inhibition of USP7 activity

Structure (SMILES) | inhibition at 1 µM
Cc1ccnc(-c2ccnc3cc(CN4C(=O)C5C(C4=O)C5(C)C)sc23)c1C(=O)N1CC(F)(F)C1 (centres unmarked) [Example 50, 3-((7-(3-(3,3-difluoroazetidine-1-carbonyl)-4-methylpyridin-2-yl)thieno[3,2-b]pyridin-2-yl)methyl)-6,6-dimethyl-3-azabicyclo[3.1.0]hexane-2,4-dione hydrochloride] | < 20%
Cc1cc(C(F)(F)F)nc(-c2ccnc3cc(CN4C(=O)C5C(C4=O)C5(C)C)sc23)c1CC1NCCNC1=O (centres unmarked) [Example 165, 6,6-dimethyl-3-((7-(4-methyl-3-((3-oxopiperazin-2-yl)methyl)-6-(trifluoromethyl)pyridin-2-yl)thieno[3,2-b]pyridin-2-yl)methyl)-3-azabicyclo[3.1.0]hexane-2,4-dione hydrochloride] | 20 to 49%
Cc1cc(C(F)(F)F)nc(-c2ccnc3cc(CN4C(=O)C5C(C4=O)C5(C)C)sc23)c1CC1NC(=O)CNC1=O (centres unmarked) [Example 37, 3-((7-(3-((3,6-dioxopiperazin-2-yl)methyl)-4-methyl-6-(trifluoromethyl)pyridin-2-yl)thieno[3,2-b]pyridin-2-yl)methyl)-6,6-dimethyl-3-azabicyclo[3.1.0]hexane-2,4-dione hydrochloride] | < 20%
Cc1nc(C#N)cc(-c2ccnc3cc(CN4C(=O)C5C(C4=O)C5(C)C)sc23)c1C(=O)N1CCC(F)(F)CC1 (centres unmarked) [Example 13, 5-(4,4-difluoropiperidine-1-carbonyl)-4-(2-((6,6-dimethyl-2,4-dioxo-3-azabicyclo[3.1.0]hexan-3-yl)methyl)thieno[3,2-b]pyridin-7-yl)-6-methylpicolinonitrile 2,2,2-trifluoroacetate] | 20 to 49%

More lines, now with the values ahead:

inhibition at 1 µM | Structure (SMILES)
< 20% | CC1(C)C2C(=O)N(Cc3cc4nccc(-c5cc(F)cnc5O[C@@H]5CCNC5)c4s3)C(=O)C21 (stereo partly drawn) [Example 158, 3-((7-(5-fluoro-2-(((R)-pyrrolidin-3-yl)oxy)pyridin-3-yl)thieno[3,2-b]pyridin-2-yl)methyl)-6,6-dimethyl-3-azabicyclo[3.1.0]hexane-2,4-dione hydrochloride]
< 20% | Cc1ccnc(-c2ccnc3cc(CN4C(=O)C5C(C4=O)C5(C)C)sc23)c1C(=O)N1CCNCC1 (centres unmarked) [Example 45, 6,6-dimethyl-3-((7-(4-methyl-3-(piperazine-1-carbonyl)pyridin-2-yl)thieno[3,2-b]pyridin-2-yl)methyl)-3-azabicyclo[3.1.0]hexane-2,4-dione hydrochloride]

same assay, conditions: read-out: percent value of inhibition of USP7 activity

Structure (SMILES) | inhibition at 1 µM
Cc1ccnc(-c2ccnc3cc(CN4C(=O)C5C(C4=O)C5(C)C)sc23)c1C(O)[C@@H]1CNCCO1 (stereo partly drawn) [Example 101, 3-((7-(3-(hydroxy((S)-morpholin-2-yl)methyl)-4-methylpyridin-2-yl)thieno[3,2-b]pyridin-2-yl)methyl)-6,6-dimethyl-3-azabicyclo[3.1.0]hexane-2,4-dione 2,2,2-trifluoroacetate] | < 20%
CC1(C)C2C(=O)N(Cc3cc4nccc(-c5cccn5CC5CNCCO5)c4s3)C(=O)C21 (centres unmarked) [Example 9, 6,6-dimethyl-3-((7-(1-(morpholin-2-ylmethyl)-1H-pyrrol-2-yl)thieno[3,2-b]pyridin-2-yl)methyl)-3-azabicyclo[3.1.0]hexane-2,4-dione 2,2,2-trifluoroacetate] | < 20%
CC1(C)C2C(=O)N(Cc3cc4nccc(-c5cc(C(F)(F)F)nn5CC5CNCCO5)c4s3)C(=O)C21 (centres unmarked) [Example 7, 6,6-dimethyl-3-((7-(1-(morpholin-2-ylmethyl)-3-(trifluoromethyl)-1H-pyrazol-5-yl)thieno[3,2-b]pyridin-2-yl)methyl)-3-azabicyclo[3.1.0]hexane-2,4-dione 2,2,2-trifluoroacetate] | < 20%
